Counter-ions that a name gives are not always drawn.
Tested on: PC12 cells
Assay: Measurements of cGMP in rat PC12 cell line (intracellular cGMP formation, enzyme immunoassay)
Assay type: cell-based
Details: for EC50: PC-12, 0.75 h
Experimental: Measurements of CGMP in Rat PC12 Cell Line.
cGMP contributes to the function and interaction of several vascular cell types and its dysfunction is involved in major cardiovascular diseases such as hypertension, diabetic complications, atherosclerosis, and tissue infarction. Therefore the extent of cGMP formation elicited by the compounds of the inventions was evaluated in the rat pheochromocytoma (PC12) cell line.
Cells were maintained at 37° C. in DMEM medium enriched with 10% horse serum and 5% foetal bovine serum under 5% CO2 atmosphere. At the time of experiments the cells were washed once with Hank's Balanced Salt Solution (HBSS) supplemented with 0.05% ascorbic acid and preincubated in the same buffer for 10 min in a floating water bath. After the preincubation step, cells were exposed for additional 45 min to either control conditions or increasing concentrations of test compounds ranging from 0.1 to 25 μM, in the presence of the phosphodiesterase inhibitor, IBMX (100 μM) and the NO-independent activator of soluble guanylyl cyclase, YC-1 (20 μM). The reaction was terminated by the removal of the incubating buffer and consecutive addition of 100 μl of absolute ethanol. The organic extracts were then evaporated to dryness and the residues dissolved in aqueous buffer for quantitative determination of intracellular cGMP levels using the cGMP enzyme immunoassay kit.
The obtained results reported in Table 1 are expressed as EC50 (μM) and efficacy Emax (% of vehicle). As shown in the table the nitroderivatives of timolol elicited consistent increase of intracellular cGMP formation in PC12 cell line.

[1] = 45 min exposure, 0.1 to 25 μM, in the presence of IBMX (100 μM) and YC-1 (20 μM)

SMILES | EC50, cGMP formation in PC12 cells [1] | Emax (% of vehicle), cGMP formation in PC12 cells [1] | increase of intracellular cGMP formation in PC12 cell line (in words) (summary statement to Table 1) | EC50 [1]
CC(C)(C)NC[C@H](O)COc1nsnc1N1CCOCC1 [Timolol, reference compound] | Not effective | Not effective | this effect was not shared | 
CC(C)(C)NC[C@@H](COc1nsnc1N1CCOCC1)OC(=O)c1ccc(CO[N+](=O)[O-])cc1 [Compound of example 1, 4-(Nitrooxymethyl)benzoic acid (S)-1-[(1,1-dimethylethyl)amino]-3-[[4-(4-morpholinyl)-1,2,5thiadiazol-3-yl]oxy]-2-propanoate maleate salt] |  |  |  | 12.6 µM
CC(C)(C)N(CC(COc1nsnc1N1CCOCC1)OC(=O)c1ccc(CO[N+](=O)[O-])cc1)C(=O)c1ccc(CO[N+](=O)[O-])cc1 [Compound of example 2, 4-(Nitrooxymethyl)benzoic acid (S)-1-[(1,1-dimethylethyl)[(4-nitrooxymethyl)benzoyl]amino]-3-[[4-(4-morpholinyl)-1,2,5-thiadiazol-3-yl]oxy]-2-propanoate] |  | 480 % of vehicle |  | 1.3 µM
CC(C)(C)N(C[C@H](O)COc1nsnc1N1CCOCC1)C(=O)c1ccc(CO[N+](=O)[O-])cc1 [Compound of example 3, (S)-1-[(1,1-dimethylethyl)[(4-nitrooxymethyl)benzoyl]amino]-3-[[4-(4-morpholinyl)-1,2,5-thiadiazol-3-yl]oxy]-2-propanol] |  | 866 % of vehicle |  | 18.5 µM
CC(C)(C)NCC(COc1nsnc1N1CCOCC1)OC(=O)c1ccc(CO[N+](=O)[O-])cc1.O=C(O)/C=C\C(=O)O [Compound of example 1, 4-(Nitrooxymethyl)benzoic acid (S)-1-[(1,1-dimethylethyl)amino]-3-[[4-(4-morpholinyl)-1,2,5thiadiazol-3-yl]oxy]-2-propanoate maleate salt] |  | 796 % of vehicle |  | 
